Assays:
[1] = in vivo; cited from earlier work
[2] = Immune responses of mRNA vaccines in vivo, DPhyPE versus DSPC as neutral lipid; settings: DPhyPE versus DSPC as neutral lipid in LNP compositions

## poly(2-methyl-2-oxazoline) [PMOZ]
[1]
  accumulation in tissue: no significant accumulation in tissue
  excretion: rapidly excreted by the kidney

## CC(C)CCCC(C)CCCC(C)CCCC(C)CC(=O)OC[C@H](COP(=O)(O)OCCN)OC(=O)CC(C)CCCC(C)CCCC(C)CCCC(C)C (stereo partly drawn) [DPhyPE, 1,2-diphytanoyl-sn-glycero-3-phosphoethanolamine]
[2]
  immune responses of mRNA vaccines in vivo, neutral lipid comparison: clear advantage over DSPC

From patent US20260273033A1, “NOVEL LIPID NANOPARTICLE FORMULATIONS FOR DELIVERY OF NUCLEIC ACIDS” (CureVac SE, priority 2023, published 2026)
